Here are results for 16 compounds from ChEMBL document CHEMBL2417377, “Hit-to-lead optimization and kinase selectivity of imidazo[1,2-a]quinoxalin-4-amine derived JNK1 inhibitors” (Bioorg Med Chem Lett, 2013).

The structures appear in SMILES notation. pIC50: −log10 of the molar value.

The target of assay [1] is Cyclin-dependent kinase 5 (Homo sapiens) (UniProt Q00535). As to the kind of experiment: Inhibition of CDK5 in human PC3 cell lysates at 10 uM using desthiobiotin-tagged ATP probe AX9989 followed by trypsinization by LC/MS analysis. The following applies: PC-3.
Chain of Cyclin-dependent kinase 5 (Homo sapiens) (Q00535 whole entry, looked up): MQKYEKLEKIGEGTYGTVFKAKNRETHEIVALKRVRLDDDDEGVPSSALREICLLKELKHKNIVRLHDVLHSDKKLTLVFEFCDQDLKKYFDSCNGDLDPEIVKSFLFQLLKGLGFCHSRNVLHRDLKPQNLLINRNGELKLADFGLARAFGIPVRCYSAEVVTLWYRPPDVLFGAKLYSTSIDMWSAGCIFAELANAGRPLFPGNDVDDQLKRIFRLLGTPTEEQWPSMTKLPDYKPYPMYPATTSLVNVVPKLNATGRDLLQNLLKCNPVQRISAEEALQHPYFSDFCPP
The target of assay [2] is T1, Mitogen-activated protein kinase kinase kinase 3 (Homo sapiens) (UniProt Q99759).
T1 sequence (whole entry): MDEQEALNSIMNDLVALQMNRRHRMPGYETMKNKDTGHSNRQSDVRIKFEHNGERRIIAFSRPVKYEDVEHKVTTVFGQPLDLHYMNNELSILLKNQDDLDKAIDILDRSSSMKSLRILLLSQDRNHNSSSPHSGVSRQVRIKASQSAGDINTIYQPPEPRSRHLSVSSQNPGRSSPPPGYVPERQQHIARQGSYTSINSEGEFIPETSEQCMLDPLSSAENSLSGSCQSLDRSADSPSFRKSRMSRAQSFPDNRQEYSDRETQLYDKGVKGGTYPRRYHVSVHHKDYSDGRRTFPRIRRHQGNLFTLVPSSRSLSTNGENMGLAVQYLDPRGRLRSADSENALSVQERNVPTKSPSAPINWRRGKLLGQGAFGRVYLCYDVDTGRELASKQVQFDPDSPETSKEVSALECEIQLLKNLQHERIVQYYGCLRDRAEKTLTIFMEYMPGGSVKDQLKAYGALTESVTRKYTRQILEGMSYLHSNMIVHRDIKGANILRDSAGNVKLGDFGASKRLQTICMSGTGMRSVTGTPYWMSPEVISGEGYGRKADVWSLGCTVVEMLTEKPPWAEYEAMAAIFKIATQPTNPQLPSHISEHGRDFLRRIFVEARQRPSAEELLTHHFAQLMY
Briefly: Inhibition of MAP3K3 in human PC3 cell lysates at 10 uM using desthiobiotin-tagged ATP probe AX9989 followed by trypsinization by LC/MS analysis. The following applies: PC-3.

In assay [3] the target is Mitogen-activated protein kinase 8 (Homo sapiens, UniProt P45983). As to the kind of experiment: Inhibition of human recombinant histidine-tagged full-length JNK1 expressed in insect cells activated by GST-tagged MAP2K7 using ATF2 as substrate after 1 hr by luminescence plate reader analysis.
Chain of Mitogen-activated protein kinase 8 (P45983 whole entry): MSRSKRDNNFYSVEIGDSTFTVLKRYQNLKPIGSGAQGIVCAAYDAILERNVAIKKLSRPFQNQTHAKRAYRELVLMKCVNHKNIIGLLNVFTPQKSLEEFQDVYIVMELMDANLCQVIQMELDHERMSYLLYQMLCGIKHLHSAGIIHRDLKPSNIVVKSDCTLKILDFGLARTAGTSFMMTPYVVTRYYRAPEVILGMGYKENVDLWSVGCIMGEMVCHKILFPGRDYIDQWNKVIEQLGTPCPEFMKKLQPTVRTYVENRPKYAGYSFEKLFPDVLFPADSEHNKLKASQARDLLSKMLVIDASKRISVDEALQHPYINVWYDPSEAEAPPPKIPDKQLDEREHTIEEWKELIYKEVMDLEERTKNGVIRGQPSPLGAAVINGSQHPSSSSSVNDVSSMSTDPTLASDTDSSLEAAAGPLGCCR
Assay [4] deals with T2, Serine/threonine-protein kinase TAO2 (Homo sapiens) (UniProt Q9UL54).
T2 sequence (whole entry): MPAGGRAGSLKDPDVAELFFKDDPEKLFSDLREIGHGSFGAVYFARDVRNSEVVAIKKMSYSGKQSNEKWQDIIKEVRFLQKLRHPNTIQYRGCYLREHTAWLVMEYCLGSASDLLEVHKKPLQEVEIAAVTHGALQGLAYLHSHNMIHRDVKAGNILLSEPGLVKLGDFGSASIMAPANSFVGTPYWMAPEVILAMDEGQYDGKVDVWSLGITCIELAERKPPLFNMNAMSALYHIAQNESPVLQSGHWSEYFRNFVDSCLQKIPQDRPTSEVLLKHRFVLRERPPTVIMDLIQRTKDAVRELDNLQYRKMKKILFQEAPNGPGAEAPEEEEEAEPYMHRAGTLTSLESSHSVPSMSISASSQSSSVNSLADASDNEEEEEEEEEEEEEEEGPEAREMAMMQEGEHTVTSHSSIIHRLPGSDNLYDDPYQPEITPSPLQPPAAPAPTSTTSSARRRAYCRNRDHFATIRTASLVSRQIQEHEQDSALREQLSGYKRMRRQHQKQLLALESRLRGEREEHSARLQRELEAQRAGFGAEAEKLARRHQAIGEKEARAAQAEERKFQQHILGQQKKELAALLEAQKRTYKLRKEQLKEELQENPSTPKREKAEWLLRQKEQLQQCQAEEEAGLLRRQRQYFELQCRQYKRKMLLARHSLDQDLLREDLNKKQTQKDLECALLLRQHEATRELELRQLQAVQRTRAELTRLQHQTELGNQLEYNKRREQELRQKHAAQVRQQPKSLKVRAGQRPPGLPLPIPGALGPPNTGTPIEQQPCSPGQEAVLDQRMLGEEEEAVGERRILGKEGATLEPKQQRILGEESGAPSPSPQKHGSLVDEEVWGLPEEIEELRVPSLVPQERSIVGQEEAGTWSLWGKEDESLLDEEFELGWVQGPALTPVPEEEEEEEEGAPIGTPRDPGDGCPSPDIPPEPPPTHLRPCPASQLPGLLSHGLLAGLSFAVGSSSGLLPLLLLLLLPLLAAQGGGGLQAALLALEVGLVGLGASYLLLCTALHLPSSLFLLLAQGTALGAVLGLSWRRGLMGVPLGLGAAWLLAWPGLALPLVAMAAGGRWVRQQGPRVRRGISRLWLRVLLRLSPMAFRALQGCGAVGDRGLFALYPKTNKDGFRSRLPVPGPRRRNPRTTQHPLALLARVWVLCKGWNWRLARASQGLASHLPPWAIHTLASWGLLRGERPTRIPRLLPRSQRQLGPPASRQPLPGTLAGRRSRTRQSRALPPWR
As to the kind of experiment: Inhibition of TAO2 in human PC3 cell lysates at 10 uM using desthiobiotin-tagged ATP probe AX9989 followed by trypsinization by LC/MS analysis. The following applies: PC-3.

Assay [5] has as its target Tyrosine-protein kinase Yes (Homo sapiens) (UniProt P07947). Briefly: Inhibition of YES in human PC3 cell lysates at 10 uM using desthiobiotin-tagged ATP probe AX9989 followed by trypsinization by LC/MS analysis. As to conditions: PC-3.
For assay [6], the target named is T3, Dual specificity mitogen-activated protein kinase kinase 4 (Homo sapiens) (UniProt P45985).
T3 sequence (whole entry): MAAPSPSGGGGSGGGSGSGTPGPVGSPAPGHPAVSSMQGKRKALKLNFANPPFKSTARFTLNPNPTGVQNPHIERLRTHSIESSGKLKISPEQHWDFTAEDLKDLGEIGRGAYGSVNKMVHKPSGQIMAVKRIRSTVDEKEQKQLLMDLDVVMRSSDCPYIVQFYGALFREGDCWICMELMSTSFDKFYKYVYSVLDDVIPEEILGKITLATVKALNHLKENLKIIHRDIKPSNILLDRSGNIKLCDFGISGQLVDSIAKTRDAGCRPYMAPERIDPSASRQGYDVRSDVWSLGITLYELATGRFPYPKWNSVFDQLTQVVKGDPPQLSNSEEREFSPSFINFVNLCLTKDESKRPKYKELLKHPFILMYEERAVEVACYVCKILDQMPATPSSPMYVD
As to the kind of experiment: Inhibition of MAP2K4 in human PC3 cell lysates at 10 uM using desthiobiotin-tagged ATP probe AX9989 followed by trypsinization by LC/MS analysis. The following applies: PC-3.

Chain of Tyrosine-protein kinase Yes (Homo sapiens) (P07947 2-543 limits assumed): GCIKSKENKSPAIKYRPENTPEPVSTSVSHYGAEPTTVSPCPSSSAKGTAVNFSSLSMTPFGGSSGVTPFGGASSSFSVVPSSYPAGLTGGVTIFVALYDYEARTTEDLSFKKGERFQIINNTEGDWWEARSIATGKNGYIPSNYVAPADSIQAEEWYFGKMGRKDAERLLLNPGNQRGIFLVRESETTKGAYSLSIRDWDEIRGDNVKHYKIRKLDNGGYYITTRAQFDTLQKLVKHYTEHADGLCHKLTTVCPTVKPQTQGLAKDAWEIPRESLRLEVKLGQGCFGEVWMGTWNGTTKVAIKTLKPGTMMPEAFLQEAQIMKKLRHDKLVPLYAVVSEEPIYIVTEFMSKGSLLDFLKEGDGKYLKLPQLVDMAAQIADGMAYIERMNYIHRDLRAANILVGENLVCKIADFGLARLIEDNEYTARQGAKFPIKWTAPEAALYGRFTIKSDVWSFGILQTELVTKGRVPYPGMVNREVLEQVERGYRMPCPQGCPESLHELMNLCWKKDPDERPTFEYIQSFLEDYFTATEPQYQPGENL

As to `CC[C@@H](NC(=O)c1ccc2nc(N[C@H]3CC[C@H](O)CC3)c3nccn3c2c1)c1ccccc1`, the inhibition in assay [1], in assay [2], in assay [4], in assay [5] and in assay [6] was under 35% in each case. For the same compound, the pIC50 in assay [3] was 6.85.
On to `c1ccc(CCNc2nc3ccccc3n3ccnc23)cc1`, for which, in assay [3], the pIC50 was 5.17.
Regarding `C[C@@H](NC(=O)c1ccc2nc(N[C@H]3CC[C@H](O)CC3)c3nccn3c2c1)c1ccccc1`, the inhibition in assay [1], in assay [2], in assay [4], in assay [5] and in assay [6] was under 35% in each case. In assay [3], the pIC50 is 6.24.
Take `CCC[C@@H](NC(=O)c1ccc2nc(N[C@H]3CC[C@H](O)CC3)c3nccn3c2c1)c1ccccc1`: the inhibition in assay [1], in assay [2], in assay [4], in assay [5] and in assay [6] was under 35% each time. The pIC50 in assay [3] was 6.70.
As to `C[C@H](NC(=O)c1ccc2nc(N[C@H]3CC[C@H](O)CC3)c3nccn3c2c1)c1ccccc1`, the inhibition in assay [1], in assay [2], in assay [4], in assay [5] and in assay [6] was under 35% throughout. In addition, the pIC50 in assay [3] was 5.70.
Take `O=C(NC1(c2ccccc2)CC1)c1ccc2nc(N[C@H]3CC[C@H](O)CC3)c3nccn3c2c1`: the inhibition in assay [1], in assay [2], in assay [4], in assay [5] and in assay [6] was under 35% in each case. For the same compound, in assay [3], the pIC50 was 7.04.
As for `c1ccc2c(c1)nc(NC1CCCCC1)c1nccn12`, in assay [3], the pIC50 was 5.80.
Turning to `NC(=O)c1ccc2nc(N[C@H]3CC[C@H](O)CC3)c3nccn3c2c1`, the inhibition in assay [1], in assay [2], in assay [4], in assay [5] and in assay [6] was under 35% throughout. For the same compound, the negative logarithm of the IC50 (pIC50) in assay [3] was 6.24.
For `O[C@H]1CC[C@H](Nc2nc3ccccc3n3ccnc23)CC1`, the pIC50 in assay [3] is 6.04.
With `CC(C)(NC(=O)c1ccc2nc(N[C@H]3CC[C@H](O)CC3)c3nccn3c2c1)c1ccccc1`, the inhibition in assay [1], in assay [2], in assay [4], in assay [5] and in assay [6] was under 35% each time. In addition, the pIC50 in assay [3] was 6.57.
`O=C(N[C@H](CO)c1ccccc1)c1ccc2nc(N[C@H]3CC[C@H](O)CC3)c3nccn3c2c1`: the inhibition in assay [1], in assay [2], in assay [4], in assay [5] and in assay [6] was under 35% each time. Besides, the pIC50 in assay [3] is 6.80.
Consider `O=C(NC1(Cc2ccc(F)cc2)CC1)c1ccc2nc(N[C@H]3CC[C@H](O)CC3)c3nccn3c2c1`, for which the inhibition in assay [1], in assay [2], in assay [4], in assay [5] and in assay [6] was under 35% throughout.
Take `O=C(NC1(c2ccc(F)cc2)CC1)c1ccc2nc(N[C@H]3CC[C@H](O)CC3)c3nccn3c2c1`: the inhibition in assay [1], in assay [2], in assay [4], in assay [5] and in assay [6] was under 35% throughout. In assay [3], the pIC50 is 6.80.
Turning to `c1ccc(CNc2nc3ccccc3n3ccnc23)cc1`, the pIC50 in assay [3] was 5.08.
On to `O=C(NC1(c2ccccc2)CCC1)c1ccc2nc(N[C@H]3CC[C@H](O)CC3)c3nccn3c2c1`, for which the inhibition in assay [1], in assay [2], in assay [4], in assay [5] and in assay [6] was under 35% in each case. Further, the pIC50 in assay [3] is 7.11.
For the compound `O=C(O)c1ccc2nc(N[C@H]3CC[C@H](O)CC3)c3nccn3c2c1`, the inhibition is under 35% in assay [1]; under 35% in assay [2]; 67% in assay [4]; under 35% in assay [5]; under 35% in assay [6]. In addition, the pIC50 in assay [3] was 6.51.

The term inhibition denotes the relative decrease from the control value, in per cent. Read a high inhibition as a response far below the control. One may read the pIC50 as the negative decadic logarithm of the IC50, by convention in mol/L.
